Experiments:
RAR = molecular target: T1, RAR (Homo sapiens, UniProt P10276); assay: RAR reporter gene (luciferase) transfer assay in COS-1 cells; type: cell-based; conditions: control lot = 1
T1 construct: expressed in transfected cells; host or cells: COS-1 cells
T1 sequence (P10276 1-462): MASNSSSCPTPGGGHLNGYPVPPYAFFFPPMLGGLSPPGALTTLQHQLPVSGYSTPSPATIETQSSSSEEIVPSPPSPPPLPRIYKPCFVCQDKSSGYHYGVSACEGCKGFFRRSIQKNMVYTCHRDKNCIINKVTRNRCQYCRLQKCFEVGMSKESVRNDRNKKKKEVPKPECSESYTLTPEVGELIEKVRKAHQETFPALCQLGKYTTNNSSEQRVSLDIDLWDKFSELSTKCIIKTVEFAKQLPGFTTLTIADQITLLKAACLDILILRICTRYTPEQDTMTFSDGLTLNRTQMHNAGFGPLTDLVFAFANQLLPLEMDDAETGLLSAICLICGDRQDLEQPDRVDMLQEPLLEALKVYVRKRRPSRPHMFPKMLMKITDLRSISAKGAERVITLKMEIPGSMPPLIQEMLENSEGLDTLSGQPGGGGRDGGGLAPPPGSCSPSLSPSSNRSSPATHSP
Excerpt: Each value means the degree of increase in the luciferase activity, which is expressed by referring the luciferase activity in the control lot as to 1, caused by the addition of the corresponding compound.
As a substitute for a plasmid containing a luciferase gene under the regulation in expression by RXR response element (pRXRL:RXRE-SV40 luciferase), and the RXRα expression plasmid (pRXRα); a plasmid containing a luciferase gene under the regulation in expression by RXR response element (pRARL:RASE-SV40 luciferase), and a […] (pRARα) were transferred into COS-1 cells. Transfectants with these plasmids and the compound of the present invention (concentration: 10^−4 to 10^−7 M) were added to the culture.
(§1) After sucking off the medium from the Petri dish, […] of a cultured cell lysing solution (25 mM Tris phosphate buffer (pH 7.8), 2 mM 1,2-diaminocyclohexane-N, N,N′,N′-tetraacetate, 10% glycerol, 1% Triton X-100) was added and the cells were peeled off with a rubber policeman and collected. After completely disrupting the cells by freezing and melting, the cells were centrifuged at 4° C. (15,000 rpm, 2 min) and the supernatant thus obtained was employed as a sample for measurement. To 20 ml of the supernatant, 100 ml of a luciferase substrate solution (2.14 mg of Co-A, 100 ml of 470 mM D-Luciferin, 200 ml of 530 mM ATP, 2 ml of DTT-Tricine buffer (pH 7.8)) was added and the fluorescence intensity was measured with a luminometer (ATTO Luminosensor AB-2000). To measure the β-galactosidase for determining the gene transfer efficiency, using a Luminescent β-galactosidase detection kit II (Clontech), fluorescence intensity was measured by a luminometer.

human RXRα = molecular target: T2, human RXRα (Homo sapiens, UniProt P19793); assay: RXR reporter gene (luciferase) transfer assay in COS-1 cells; type: cell-based; conditions: 2 × 10^−5 M
T2 construct: expressed in transfected cells; host or cells: COS-1 cells
T2 sequence (P19793 1-462): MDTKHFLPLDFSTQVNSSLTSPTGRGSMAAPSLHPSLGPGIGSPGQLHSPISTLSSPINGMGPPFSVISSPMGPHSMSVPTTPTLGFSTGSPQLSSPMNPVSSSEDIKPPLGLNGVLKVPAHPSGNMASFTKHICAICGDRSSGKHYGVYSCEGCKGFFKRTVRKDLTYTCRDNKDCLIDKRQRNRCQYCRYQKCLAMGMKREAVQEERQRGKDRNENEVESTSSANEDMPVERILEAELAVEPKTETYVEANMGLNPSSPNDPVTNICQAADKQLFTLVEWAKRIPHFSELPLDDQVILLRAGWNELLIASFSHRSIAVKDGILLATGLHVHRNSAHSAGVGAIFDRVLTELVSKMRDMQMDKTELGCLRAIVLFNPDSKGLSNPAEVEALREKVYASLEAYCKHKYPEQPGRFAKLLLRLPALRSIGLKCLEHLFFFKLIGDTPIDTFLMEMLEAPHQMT
Method: A plasmid containing a reporter gene regulated in expression by RXR response element and an RXRα expression plasmid were transferred into COS-1 cells. Then these cells were treated with the compounds of the present invention such as ascochlorin.
Plasmids were transferred into COS-1 cells. Gene transfer was carried out in a conventional manner with the use of Lipofect AMINE reagent (Life Technologies). 1×10^5 cells were dispersed in 2 ml of Dulbecco's modified Eagle medium (DMEM) containing 10% of fetal calf serum and poured into a 35 mm Petri dish. After culturing in a CO2 incubator for 17 hours, the medium was removed and the cells adhering to the Petri dish were washed with phosphate-buffered saline (PBS). Then gene transfer was carried out by using Lipofect AMINE reagent. Namely, 500 ml of a minimum serum medium OptiMEM (Life Technologies) containing […] of a plasmid containing a luciferase gene under the regulation in expression by RXR response element (PRXRL: RXRE-SV40 luciferase; a reporter gene plasmid wherein RXRE has been ligated to SV40 promoter and luciferase cDNA, under the regulation in expression thereby, has been located downstream thereof); […] of an RXRα expression plasmid (pRXRα; a plasmid wherein human RXRα CDNA has been ligated to the downstream of a cytomegalovirus promoter to express human RXRα in mammalian cells); and 2 mg of a β-galactosidase gene plasmid to assess the gene transfer ratio (pCH110; Pharmacia) were pre-mixed with 500 ml of OptiMEM containing 50 ml of Lipofec AMINE, and the resultant mixture was maintained at room temperature for 15 minutes. 100 ml of this liquid mixture was mixed with 400 ml of OptiMEM, and the medium mixture was divided to the Petri dish. After maintaining in a CO2 incubator at 37° C. for 3 hours, the gene transfer medium was sucked off from the Petri dish and DMEM medium containing a test substance and 10% of serum (activated carbon-treated) was added thereto followed by culturing at 37° C. for 20 hours. […] Further, dimethyl sulfoxide (final concentration: 0.1%) was added as the solvent for the test substance.
as §1

male ICR and ddY mice = assay: Serum total cholesterol lowering effect in mice; type: in vivo, mouse; conditions: 8 days; for Serum total cholesterol, % change: vs control; for Serum total cholesterol: Mean±SE
Excerpt: Effect of serum cholesterol lowering agents varies among animals. Namely, some agents which are effective on a certain animal exert […] on others. For example, compactin, which is an HMG CoA reductase inhibitor, cannot lower the serum total cholesterol level when administered to rodents such as rat or mouse. This is because even though HMG CoA reductase is inhibited in the rodent liver, the enzyme is biosynthesized in an amount in excess of that for compensating the inhibition so that the inhibitory effect is negated. Accordingly, it is favorable to calibrate the effect of lowering serum total cholesterol level in as many animals as possible. Concerning the effect of the compounds of the present invention on the serum total cholesterol level, an assay was made with the use of mice. After adding these compounds to a standard powdery feed for rat and mouse, the resultant mixtures were molded into pellets and given for 8 days to male ICR and ddY mice aged 5 weeks. In the afternoon of the day 8, the blood of each animal was collected from the heart and the total cholesterol in the serum was determined. The doses were determined as the maximum dose, in which body weight gain was not suppressed after orally administering for 1 week, and as the ¼ dose thereof.
Each value is represented in Mean±SE (n=10). a) In the case of Compound-1, the control group consisted of 23 animals while the 0.04% and 0.01% groups each consisted of 12 animals.

white rabbits = assay: Inhibition of arteriosclerosis in white rabbits fed high fat feed; conditions: 0.2% in high fat feed, 14 weeks
Method: Thus, a high fat feed was prepared by adding 10% of hardened coconut oil, 2% of cholesterol, 0.5% of bovine bile powder and 0.04% or 0.01% of ascochlorin to a powdery marketed standard white rabbit feed and molded the mixture into pellets. Separately, another high fat feed for the control group was prepared without using ascochlorin.
Twenty-four white rabbits weighing about 2 kg were divided into 4 groups at random. One of these groups was regarded as the control group, while the remaining 3 groups were respectively regarded as the clofibrate group, the ascochlorin 0.01% group and the ascochlorin 0.04% group at random. Then the experiment was carried out for 14 weeks.

male Wistar rats = assay: Sterol balance and bile acid excretion in rats; type: in vivo, rat; conditions: High cholesterol feed
Method: Feed-origin cholesterol and neutral sterol and acidic sterol in the feces of rats, to which the compounds of the present invention had been administered, were determined to monitor sterol balance and changes in the bile acid composition in feces. […] Further, the bile was sampled with the passage of time from rats having been subjected to cholangiostomy and bile acids thereof were determined. […] Male Wistar rats weighting about 250 g were divided into groups each having 6 to 8 animals. […] […] The feces were collected on the days 6 and 10. Then sterols were extracted therefrom in a conventional manner, acidic sterols and neutral sterols were determined. On the other hand, cholesterol in the feed was also determined so as to calculate the amount of feed-origin sterol.

SMILES: CC1=C(/C=C/C(C)=C/C=C/C(C)=C/C(=O)O)C(C)(C)CCC1 [All-trans retinoic acid, reference compound]
- degree of increase in the luciferase activity, RAR vector (RAR; 10^−7 M): 46

SMILES: COc1c(C=O)c(C)c(Cl)c(O)c1CC=C(C)C=CC1(C)C(C)CCC(=O)C1C (stereo not shown) [Compound-10, 2-O-methylASC]
- fold increase in luciferase reporter activity (control = 1) (human RXRα): 1.45
- degree of increase in the luciferase activity, RXR vector (human RXRα; control lot = 1): 58
- degree of increase in the luciferase activity, RAR vector (RAR; 2 × 10^−5 M): 40
- Serum total cholesterol, % change (male ICR and ddY mice; 0.01% in feed): −30%
- Serum total cholesterol (male ICR and ddY mice; 0.01% in feed): 130 ± 4.5 mg/dL
- Serum total cholesterol, % change (male ICR and ddY mice; 0.04% in feed): −34%
- Serum total cholesterol (male ICR and ddY mice; 0.04% in feed): 122 ± 3.0 mg/dL

SMILES: CCOC(=O)C(C)(C)Oc1ccc(Cl)cc1 [clofibrate, reference compound]
- animals died from circulatory insufficiency due to obstruction in the coronary artery (white rabbits): 2 animals among six

SMILES: COc1c(Cl)c(C)c(C=O)c(OC)c1CC=C(C)C=CC1(C)C(C)CCC(=O)C1C (stereo not shown) [compound 7, 2,4-dimethylASC]
- Serum total cholesterol, % change (male ICR and ddY mice; 0.04% in feed): −31%
- Serum total cholesterol (male ICR and ddY mice; 0.04% in feed): 120 ± 5.9 mg/dL

SMILES: CC(/C=C/C1(C)C(C)CCC(=O)C1C)=C\Cc1c(O)c(C=O)c(C)c(Cl)c1OCCCC(=O)O (stereo not shown) [compound 16]
- Sterol balance (male Wistar rats; administration 5 days): +15.12 mg/day
- Sterol in feces, Acidic sterol (male Wistar rats; administration 5 days): 8.67 mg/day
- Sterol in feces, Cholesterol (male Wistar rats; administration 5 days): 246.30 mg/day
- Sterol in feces, Coprosterol (male Wistar rats; administration 5 days): 41.05 mg/day
- excretion increase (male Wistar rats; administration 5 days): 8.95 mg/day
- Sterol balance (male Wistar rats; administration 10 days): +28.52 mg/day
- Sterol in feces, Acidic sterol (male Wistar rats; administration 10 days): 9.93 mg/day
- Sterol in feces, Cholesterol (male Wistar rats; administration 10 days): 233.08 mg/day
- Sterol in feces, Coprosterol (male Wistar rats; administration 10 days): 58.27 mg/day
- excretion increase (male Wistar rats; administration 10 days): 34.07 mg/day

SMILES: CC(/C=C/[C@@]1(C)[C@H](C)CCC(=O)[C@@H]1C)=C\Cc1c(O)c(C=O)c(C)c(Cl)c1OC(=O)c1cccnc1 [compound 19, 4-O-nicotinoylASC]
- Serum total cholesterol, % change (male ICR and ddY mice; 0.01% in feed): −13%
- Serum total cholesterol (male ICR and ddY mice; 0.01% in feed): 91 ± 4.5 mg/dL
- Serum total cholesterol, % change (male ICR and ddY mice; 0.04% in feed): −16%
- Serum total cholesterol (male ICR and ddY mice; 0.04% in feed): 88 ± 3.0 mg/dL

— patent publication US6605639B1, “Ligands of nuclear receptor” (Nuclear Receptor Research, Ltd., priority 1998, dated 2003)
